Test [1] has as its target T1, BlaC I105R (Mycobacterium tuberculosis, UniProt P9WKD3, I117R). Format: biochemical. Particulars: pH 6.4.
Test [2] concerns the target T1, BlaC I105R. It counts as biochemical.

Values joined by “and” are separate entries in the source; they are usually repeats but may differ in a detail not shown here. Identical values can stand only once.

In the case of `CC1(C)S[C@@H]2[C@H](NC(=O)[C@H](N)c3ccccc3)C(=O)N2[C@H]1C(=O)O` [ampicillin], in test [1], the kcat worked out at 3.4 ± 0.1 s⁻¹.

Consider `NC(=O)[C@@H]1CC[C@@H]2CN1C(=O)N2OS(=O)(=O)O` [avibactam], for which, in test [2], the “in vitro sensitivity to inhibition compared with wild type” value was “less sensitive”; the k2 was 9.5 and 9.5 10^−2 s^−1; the k-2 was 0.1 and 0.1 10^−3 s^−1.

Consider `CC1(C)S[C@@H]2[C@H](NC(=O)C(C(=O)O)c3ccccc3)C(=O)N2[C@H]1C(=O)O` (stereo partly drawn) [carbenicillin], for which the kcat in test [1] is 0.27 ± 0.01 s⁻¹.

`O=C(O)[C@H]1/C(=C/CO)O[C@@H]2CC(=O)N21` [clavulanic acid]: in test [2], the “in vitro sensitivity to inhibition compared with wild type” value is given as “less sensitive”; the k1 turned out to be 1e+06 M⁻¹ s⁻¹; the k2 is 4.6 and 4.6 10^−2 s^−1; the k3 was 2 and 2 10^−3 s^−1.

As to `O=C(Cc1cccs1)N[C@@H]1C(=O)N2C(C(=O)O)=C(/C=C/c3ccc([N+](=O)[O-])cc3[N+](=O)[O-])CS[C@H]12` [nitrocefin], in test [2], the ka is 180000 M⁻¹ s⁻¹; the kc was 40 s⁻¹ and 57 s⁻¹. In addition, the kcat in test [1] came to 24 ± 2 s⁻¹.

The kcat is the number of substrate molecules converted per active site and unit of time at saturation.
